Laboratory results as given in patent US20010005714A1, “AMPHIPATHIC MOLECULES AS CHOLESTEROL AND OTHER LIPID UPTAKE INHIBITORS” (priority 1996, published 2001).

How the values were obtained:
[1] = test system: brush border membrane vesicles (BBMV); experiment: IC50 of cholesteryl oleate uptake at the brush border membrane (Example 6); assay type: biochemical, rabbit; conditions: donor 0.1 mg total lipid/ml, acceptor 2 mg protein/ml; 20 min at 25° C.
Protocol: An appropriate amount of inhibitor dissolved in 84.5 μl buffer (0.05 M Tris pH 7.4, 0.15 M NaCl) is mixed in an Eppendorf tube at time zero with 5 μl of a dispersion of donor and 10.5 μl of a dispersion of acceptor (i.e. brush border membrane vesicles (BBMV)) in the same buffer. The final concentration of the donor vesicles was 0.1 mg total lipid/ml, that of the acceptor was 2 mg protein/ml. The resulting mixture was incubated for 20 min at 25° C., and the reaction was stopped by adding 60 μl of the incubation medium to 120 μl ice-cold bufferin an airfuge tube. The diluted dispersion was immediately centrifuiaed in the airfuge at […] for 2 min. at 4° C. to separate donor vesicles from BBMV. Two 60 μl aliquots of the donor (=supernatant) were counted in a Beckman LS-7500 liquid scintillating counter to determine the radioactivity remaining in tbe donor.
Small unilamellar egg phosphatidycholine (PC) vesicles containing 1 mol % of cholesterol oleate and a trace amount of ^3H-cholesterol oleyl ether were made by dissolving the appropriate amounts of the lipids in CHCl3/CH3OH, (2:1, by vol.), taking the solution to dryness on a rotary evaporator and drying the residue in vacuo. The dried lipid film was dispersed in the appropriate volume of buffer by hand-shaking. The lipid dispersion was subjected to tip sonication as described in Brunner et al, J. Biol. Chem. 253 7538-7546 (1978). The resulting donor dispersion in buffer was centrifuged in the airfuge at 100000 g for 2 min at […]. Only the top 80% of the donor dispersion after centrifugation was used in the lipid uptake experiment.
BBMV were prepared from frozen rabbit small intestine according to Hauser et al (Biochim. Biophys. Acta 602 567-577 (1980)). Prior to use in the uptake experiment determining IC50 values the BBMV were washed to remove any free protein liberated from the BBM. To this end the BBMV dispersion was diluted with buffer 1:1 in an airfuge tube, and the diluted dispersion was centrifuged in the airfuga at 100000 g for 2 min at […]. The supernatant was is carefully decanted, the pellet was resuspended in buffer to the original volume of the BBMV dispersion, and the dispersion was homogenized. […]

[2] = test system: abetalipoproteinemic BBMV; experiment: [14C]Cholesterol uptake from egg PC vesicles by abetalipoproteinemic BBMV; assay type: biochemical, human; conditions: donor egg PC vesicles 0.01 mg lipid/ml, acceptor abetalipoproteinemic BBMV 0.25 mg lipid/ml; read-out: Inhibition IC50: concentration required to reduce protein-mediated cholesterol uptake by 50%
Protocol: (§1) Biopsy samples from human duodenum, 20 to 30 mg of wet tissue each, were suspended in 200 μl buffer (12 mM Tris HCl pH 7.2, 300 mM mannitol, 5 mM EGTA, 1 mM phenylmethylsulfonyl fluoride), frozen in liquid nitrogen and stored at −80° C. prior to use. BBMV were prepared by Mg^+2 precipitation (Hauser et al, Biochim. Biophys. Acta 602 567-577 (1980)) as described in detail by Booth et al (Lancet 1 1066-1069 (1985)). Proteinase K treatment of the BBMV was carried out according to Thurnhofer and Hauser (Biochim. Biophys. Acta 1024 249-262 (1990)). […] Small unilamellar phesrholipid vesicles were prepared by tip sonication (Schulthess, Biochemistry 33 4500-4508 (1994)). […]
(§2) Kinetic measurements were also carried out in the presence of inhibitors; synthetic peptides or apolipoproteins were added to the […] of donor and acceptor vesicles. Cholesterol uptake by native and proteinase K treated BBMV was determined in the presence of increasing concentrations of Ac-18A-NH2, the difference between cholesterol uptake by native and proteinase K treated BBMV is referred as protein-mediated cholesterol uptake in FIG. 6. The IC50 values were determined according to Methods Enzymol. […]

BBMVs = experiment: Inhibition of cholesteryl oleate uptake by BBMVs by peptides of varying lengths (Example 8); assay type: biochemical; conditions: 120 μg peptide/ml
Protocol: going from one peptide to the other (top→bottom) 3 amino acids were removed from the N-terminus. The inhibitory effect of the four peptides listed above were compared at 120 μg peptide/ml. The lipid uptake by BBMVs was measured in the presence of 120 μg peptide/ml each as described below.
Donor and acceptor particles dispersed in Tris/NaCl buffer were centrifuged in a Beckman airfuge at 115000 g is for 2 min at 4° C. The dispersion of the acceptor yielded a pellet which was resuspended in Tris/NaCl buffer. Varying amounts of inhibitor dissolved in the same buffer were added to the acceptor dispersion and at time zero the dispersiorn of acceptor with or without inhibitor was mixed with the top 80% of the supernatant obtained by centrifugation of the donor dispersion. The final concentration of the donor was 0.05 mg total lipid/ml and that of the acceptor was 5 mg protein/ml. The resulting dispersion was incubated at 23° C. and after timed intervals the sterol uptake was stopped by dilution of the incubation medium with 2 volumes of Tris/NaCl buffer. BBMV were separated from the donor by centrifugation in the Beckman airfuge at 115000 g for 2 min at 4° C. The radioactivities in the supernatant containing the donor and in the pellet containing the BBMV (acceptor) were determined in a Beckman LS 7500 scintillation counter.

normal human BBMV = experiment: [14C]Cholesterol uptake from egg PC vesicles by normal human duodenal BBMV; assay type: biochemical
Protocol: Biopsy samples from human duodenum, 20 to 30 mg of wet tissue each, were suspended in 200 μl buffer (12 mM Tris HCl pH 7.2, 300 mM mannitol, 5 mM EGTA, 1 mM phenylmethylsulfonyl fluoride), frozen in liquid nitrogen and stored at −80° C. prior to use. BBMV were prepared by Mg^+2 precipitation (Hauser et al, Biochim. Biophys. Acta 602 567-577 (1980)) as described in detail by Booth et al (Lancet 1 1066-1069 (1985)). Proteinase K treatment of the BBMV was carried out according to Thurnhofer and Hauser (Biochim. Biophys. Acta 1024 249-262 (1990)). […] Small unilamellar phesrholipid vesicles were prepared by tip sonication (Schulthess, Biochemistry 33 4500-4508 (1994)).
(I) Egg PC small unilamellar vesicles containing […] (^14C] cholesterol and BBMV both dispersed in 10 mM Tris-HCl pH 7.2, 0.15 M NaCl, 5 mM EDTA were incubated at room temperature. After timed intervals phospholipid vesicles and BBMV were separated by centrifugation at 115000 g for 2 min in a Beckman airfuge. The radioactivities present in pellet and supernatant were determined by counting aliquots in a Beckman LS 7500 liquid scintillatior counter. Fusion of egg PC small unilamellar vesicles and BBMV as a possible mechanism of cholesterol uptake was ruled out as discussed in detail in previous studies (Thurnhofer and Hauser, Biochemistry 29 2142-2148 (1990); Compassi, Biochemistry 34 16473-16482 (1995) and Schulthess, J. Lipid. Res. 37 2405-2419 (1996)).
The experimental data were computer-fitted using the following equation valid for single-exponential exchange reactions: X=X∞+[XO−X∞]e^-k1^[(a+b)/a]t, where XO, X and X∞represent the fractions of the labelled lipid in the donor at times 0, t and at equilibrium, respectively. K1 is the pseudo-first-order rate constant of the reaction and a and b are the lipid pools of acceptor and donor, respectively (McKay, Nature 142 997-998 (1938) and Mutsch et al, Biochemistry 25 2134-2140 (1986).
(§3) Kinetic measurements were also carried out in the presence of inhibitors; synthetic peptides or apolipoproteins were added to the […] of donor and acceptor vesicles. Cholesterol uptake by native and proteinase K treated BBMV was determined in the presence of increasing concentrations of Ac-18A-NH2, the difference between cholesterol uptake by native and proteinase K treated BBMV is referred as protein-mediated cholesterol uptake in FIG. 6. The IC50 values were determined according to Methods Enzymol. 37 3-22 (1975).

[3] = [14C]Cholesterol transfer from egg PC vesicles to egg PC/egg PA vesicles; assay type: biochemical
Protocol: (II) Similarly, egg PC small unilamellar vesicles containing 1 mol % [^14C] cholesterol as the donor and small unilamellar vesicles of egg PC/egg PA (85:15, mole ratio) as the acceptor were incubated at room temperature. After timed intervals aliquots of the incubation mixture were filtered through DEAE Sepharose C1-CB columns, which retained the negatively charged vesicles. Pure egg PC vesicles were eluted and their radioactivity determined.
as §3

[4] = biological target: proteinase K-treated normal BBMV; experiment: [14C]Cholesterol uptake from egg PC vesicles by proteinase K-treated normal BBMV; assay type: biochemical, human
Protocol: as §1, §2

Ac-Asp-Trp-Leu-Lys-Alα-Phe-Tyr-Asp-Lys-Val-Alα -Glu-Lys-Leu-Lys-Glu-Alα-Phe-NH2 [Ac-18A-NH2, amphipathic α-helix of class A peptide, N-acetylated and C-amidated 18A]
IC50 [1]: 16 ± 1 µM
IC50 (μg/mL) of cholesteryl oleate uptake at the brush border membrane [1]: 35 ± 2 µg/mL
IC50 [2]: 23 ± 3 µM
inhibitory effect on cholesteryl oleate uptake (in words, footnote) (BBMVs): Useful inhibitory effect is seen with Peptides Nos. 1 and 2.
Inhibition of Cholesteryloleate Uptake In. % (BBMVs; donor 0.05 mg total lipid/ml, acceptor 5 mg protein/ml, 23° C.): 100%
effect on passive cholesterol transfer (in words) (normal human BBMV): no inhibitory effect
half time of residual cholesterol uptake by native BBMV not inhibited by the peptide (normal human BBMV; 60 μM Ac-18A-NH2): 6.7 ± 1.4 h
IC50 (normal human BBMV; donor egg PC vesicles 0.01 mg lipid/ml, acceptor normal human BBMV 0.25 mg lipid/ml, 20 min, read-out: Inhibition IC50: concentration required to reduce protein-mediated cholesterol uptake by 50%): 23 ± 1 µM
inhibition of protein-mediated cholesterol uptake (in words) (normal human BBMV; human duodenal BBMV): effectively and completely inhibited
inhibitory effect on cholesterol transfer between phospholipid vesicles (in words) [3]: no inhibitory effect
Inhibition IC50 ([3]; donor egg PC vesicles 0.01 mg lipid/ml, acceptor egg PC/egg PA vesicles 0.25 mg lipid/ml): no inhibition
Inhibition IC50 ([4]; donor egg PC vesicles 0.01 mg lipid/ml, acceptor proteinase K-treated normal BBMV 0.25 mg lipid/ml): no inhibition
inhibitory effect on cholesterol uptake (in words) ([4]; proteinase K-treated BBMV): no inhibitory effect
